Test results from the supplement of paper PMC11208160.

Test: recombinant UMI read abundance after kanamycin selection (control-corrected) (log10(CPM+1)); higher = more efficient recombination; extreme values may be limits of the assay; sequences stand for … in AGTGCAGAGAAAATCGGCCAGTTTTCTCTGCCTGCAGTCCGCATGCCGTGGGACCCCTTGGGTTCTAACCTGTTGCCTAGATTTATGCAGCGGACTGCCTTTCTCCCAAAGTGATAAACCGG…AGGTTGGTTTCACT; site = the 11-nt donor
Protocol: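 Pooled E. coli donor-specificity screen for the IS621 bridge recombinase. Each library member carries a reprogrammed 11-nt donor and a full-length LE bridge RNA expressed in cis from the natural promoter, with a paired donor-binding loop (8-nt LDG + 4-nt RDG) and a target-binding loop fixed to T5. It is co-electroporated with a T5 target plasmid; recombinase is induced with 0.07 mM IPTG and recombinants are selected on kanamycin. UMIs are counted as CPM, averaged over two biological replicates and corrected by the unselected control. Molecule = full bridge RNA written as DNA, built from the T5 scaffold: LDG = donor specificity nt 1-8, RDG = reverse complement of nt 8-11.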
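Also: IS621 bridge recombinase in Escherichia coli cells against a fixed T5 target plasmid.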

| Sequence | recombinant UMI read abundance (log10) |
| --- | --- |
| ACTCGAACATGGACCGGTTTTCCCGGTAATCCGTATTTGAG (site ACTCGAACTCT) | 1.16 |
| ACTCGAACATGGACCGGTTTTCCCGGTAATCCGTATTTGAG (site ACTGGAACTCT) | 0.00958 |
| ACTCGAACATGGACCGGTTTTCCCGGTAATCCGTATTTGAG (site ACTTGAACTCT) | 0.00429 |
| ACTCGGCCATGGACCGGTTTTCCCGGTAATCCGTATTTGGT (site ACTCGGCCTAC) | 0.00855 |
| ACTCTCCCATGGACCGGTTTTCCCGGTAATCCGTATTTGGA (site ACTCTCCCTTC) | 0.0237 |
| ACTGAAGCATGGACCGGTTTTCCCGGTAATCCGTATTTGTA (site ACTGAAGCTTA) | 2.5 |
| ACTGAGACATGGACCGGTTTTCCCGGTAATCCGTATTTGGT (site AATGAGACTAC) | 0.158 |
| ACTGAGACATGGACCGGTTTTCCCGGTAATCCGTATTTGGT (site ACTGAGACTAC) | 1.53 |
| ACTGAGACATGGACCGGTTTTCCCGGTAATCCGTATTTGGT (site AGTGAGACTAC) | 0.0694 |
| ACTGAGACATGGACCGGTTTTCCCGGTAATCCGTATTTGGT (site ATTGAGACTAC) | 0.541 |
| ACTGATGCATGGACCGGTTTTCCCGGTAATCCGTATTTGAC (site ACTGATGCTGT) | 2.08 |
| ACTGCACCATGGACCGGTTTTCCCGGTAATCCGTATTTGAG (site ACTGCACCTCT) | 0.0235 |
| ACTGCTACATGGACCGGTTTTCCCGGTAATCCGTATTTGGT (site ACTGCTACTAC) | 0.194 |
| ACTGTATCATGGACCGGTTTTCCCGGTAATCCGTATTTGCC (site ACAGTATCTTG) | 0 |
| ACTGTATCATGGACCGGTTTTCCCGGTAATCCGTATTTGCC (site ACTGTATCTGG) | 2.92 |
| ACTTACTCATGGACCGGTTTTCCCGGTAATCCGTATTTGAC (site ACTTACTCTGT) | 2.81 |
| ACTTCGACATGGACCGGTTTTCCCGGTAATCCGTATTTGCA (site ACTTCGACTTG) | 1.84 |
| ACTTCTGCATGGACCGGTTTTCCCGGTAATCCGTATTTGCC (site ACTTCTGCTGG) | 1.76 |
| ACTTCTTCATGGACCGGTTTTCCCGGTAATCCGTATTTGTC (site ACTTCTTCTGA) | 0 |
| ACTTGCTCATGGACCGGTTTTCCCGGTAATCCGTATTTGTT (site ACTTGCTCTAA) | 0.824 |
| AGAAAAGCATGGACCGGTTTTCCCGGTAATCCGTATTTGCT (site AGAAAAGCTAG) | 2.12 |
| AGAAAAGCATGGACCGGTTTTCCCGGTAATCCGTATTTGCT (site AGAAACGCTAG) | 0.464 |

| Sequence | recombinant UMI read abundance (log10) |
| --- | --- |
| AGAAAAGCATGGACCGGTTTTCCCGGTAATCCGTATTTGCT (site AGAAAGGCTAG) | 1.38 |
| AGAAAAGCATGGACCGGTTTTCCCGGTAATCCGTATTTGCT (site AGAAATGCTAG) | 0 |
| AGAAAGACATGGACCGGTTTTCCCGGTAATCCGTATTTGTA (site AGAAAGACTTA) | 2.51 |
| AGAAAGACATGGACCGGTTTTCCCGGTAATCCGTATTTGTA (site AGGAAGACTTG) | 0 |
| AGAAAGCCATGGACCGGTTTTCCCGGTAATCCGTATTTGCT (site AGAAAGACTAG) | 0 |
| AGAAAGCCATGGACCGGTTTTCCCGGTAATCCGTATTTGCT (site AGAAAGCCTAG) | 0 |
| AGAAAGCCATGGACCGGTTTTCCCGGTAATCCGTATTTGCT (site AGAAAGGCTAG) | 0 |
| AGAAAGCCATGGACCGGTTTTCCCGGTAATCCGTATTTGCT (site AGAAAGTCTAG) | 2.3 |
| AGAACAACATGGACCGGTTTTCCCGGTAATCCGTATTTGAT (site AGAACAACTAT) | 1.63 |
| AGAACAACATGGACCGGTTTTCCCGGTAATCCGTATTTGCT (site TTTGTCCCTCC) | 0.00956 |
| AGAACATCATGGACCGGTTTTCCCGGTAATCCGTATTTGCG (site AGAACATCTCG) | 2.3 |
| AGAACCCCATGGACCGGTTTTCCCGGTAATCCGTATTTGGT (site AGAACCCCTAC) | 0.545 |
| AGAACGGCATGGACCGGTTTTCCCGGTAATCCGTATTTGCT (site AGAAAGGCTAG) | 1.08 |
| AGAACGGCATGGACCGGTTTTCCCGGTAATCCGTATTTGCT (site AGAACGGCTAG) | 2.35 |
| AGAACGGCATGGACCGGTTTTCCCGGTAATCCGTATTTGCT (site AGAAGGGCTAG) | 0 |
| AGAACGGCATGGACCGGTTTTCCCGGTAATCCGTATTTGCT (site AGAATGGCTAG) | 0 |
| AGAACTACATGGACCGGTTTTCCCGGTAATCCGTATTTGAC (site AGAACTACTGT) | 2.15 |
| AGAACTACATGGACCGGTTTTCCCGGTAATCCGTATTTGAC (site AGCACTACTGT) | 0 |
| AGAACTACATGGACCGGTTTTCCCGGTAATCCGTATTTGAC (site AGGACTACTGT) | 0.849 |
| AGAACTACATGGACCGGTTTTCCCGGTAATCCGTATTTGAC (site AGTACTACTGT) | 1.37 |
| AGAAGAGCATGGACCGGTTTTCCCGGTAATCCGTATTTGGA (site AGAAGAGCTTC) | 1.81 |
| AGAAGGGCATGGACCGGTTTTCCCGGTAATCCGTATTTGAG (site AGAAGGGCTCT) | 1.64 |

| Sequence | recombinant UMI read abundance (log10) |
| --- | --- |
| AGAAGGGCATGGACCGGTTTTCCCGGTAATCCGTATTTGCT (site AGAAAGGCTAG) | 1.73 |
| AGAAGGGCATGGACCGGTTTTCCCGGTAATCCGTATTTGCT (site AGAACGGCTAG) | 0.0144 |
| AGAAGGGCATGGACCGGTTTTCCCGGTAATCCGTATTTGCT (site AGAAGGGCTAG) | 2.64 |
| AGAAGGGCATGGACCGGTTTTCCCGGTAATCCGTATTTGCT (site AGAATGGCTAG) | 0.25 |
| AGAAGTCCATGGACCGGTTTTCCCGGTAATCCGTATTTGAA (site AGAAGTCCTTT) | 1.33 |
| AGACAATCATGGACCGGTTTTCCCGGTAATCCGTATTTGAG (site AGACAATCTCT) | 2.98 |
| AGACAATCATGGACCGGTTTTCCCGGTAATCCGTATTTGTA (site AGACAATCTTA) | 2.63 |
| AGACACTCATGGACCGGTTTTCCCGGTAATCCGTATTTGGT (site AGACACTCTAC) | 2.78 |
| AGACAGTCATGGACCGGTTTTCCCGGTAATCCGTATTTGAT (site AGACAGTCTAT) | 2.94 |
| AGACATCCATGGACCGGTTTTCCCGGTAATCCGTATTTGAC (site AAACATCCTGT) | 0 |
| AGACATCCATGGACCGGTTTTCCCGGTAATCCGTATTTGAC (site ACACATCCTGT) | 0.237 |
| AGACATCCATGGACCGGTTTTCCCGGTAATCCGTATTTGAC (site AGACATCCTGT) | 0 |
| AGACATCCATGGACCGGTTTTCCCGGTAATCCGTATTTGAC (site ATACATCCTGT) | 0 |
| AGACATGCATGGACCGGTTTTCCCGGTAATCCGTATTTGCC (site AGACATGCTGG) | 3.01 |
| AGACGAACATGGACCGGTTTTCCCGGTAATCCGTATTTGTC (site AAACGAACTGA) | 0 |
| AGACGAACATGGACCGGTTTTCCCGGTAATCCGTATTTGTC (site ACACGAACTGA) | 0 |
| AGACGAACATGGACCGGTTTTCCCGGTAATCCGTATTTGTC (site AGACGAACTGA) | 1.35 |
| AGACGAACATGGACCGGTTTTCCCGGTAATCCGTATTTGTC (site ATACGAACTGA) | 0.731 |
| AGACGGGCATGGACCGGTTTTCCCGGTAATCCGTATTTGTC (site AGACGGGCTGA) | 2.3 |
| AGAGCATCATGGACCGGTTTTCCCGGTAATCCGTATTTGGT (site AGAGCATCTAC) | 2.89 |
| AGAGTAACATGGACCGGTTTTCCCGGTAATCCGTATTTGCA (site AGAGTAACTTG) | 2.71 |
